As a reminder, the IC50 is the concentration that inhibits the measured activity by half. A low value points to greater potency.

Active and inactive are the calls of the source. No rule for the calls is given here.

Chain of Breakpoint cluster region protein (Homo sapiens) (P11274 whole entry, looked up): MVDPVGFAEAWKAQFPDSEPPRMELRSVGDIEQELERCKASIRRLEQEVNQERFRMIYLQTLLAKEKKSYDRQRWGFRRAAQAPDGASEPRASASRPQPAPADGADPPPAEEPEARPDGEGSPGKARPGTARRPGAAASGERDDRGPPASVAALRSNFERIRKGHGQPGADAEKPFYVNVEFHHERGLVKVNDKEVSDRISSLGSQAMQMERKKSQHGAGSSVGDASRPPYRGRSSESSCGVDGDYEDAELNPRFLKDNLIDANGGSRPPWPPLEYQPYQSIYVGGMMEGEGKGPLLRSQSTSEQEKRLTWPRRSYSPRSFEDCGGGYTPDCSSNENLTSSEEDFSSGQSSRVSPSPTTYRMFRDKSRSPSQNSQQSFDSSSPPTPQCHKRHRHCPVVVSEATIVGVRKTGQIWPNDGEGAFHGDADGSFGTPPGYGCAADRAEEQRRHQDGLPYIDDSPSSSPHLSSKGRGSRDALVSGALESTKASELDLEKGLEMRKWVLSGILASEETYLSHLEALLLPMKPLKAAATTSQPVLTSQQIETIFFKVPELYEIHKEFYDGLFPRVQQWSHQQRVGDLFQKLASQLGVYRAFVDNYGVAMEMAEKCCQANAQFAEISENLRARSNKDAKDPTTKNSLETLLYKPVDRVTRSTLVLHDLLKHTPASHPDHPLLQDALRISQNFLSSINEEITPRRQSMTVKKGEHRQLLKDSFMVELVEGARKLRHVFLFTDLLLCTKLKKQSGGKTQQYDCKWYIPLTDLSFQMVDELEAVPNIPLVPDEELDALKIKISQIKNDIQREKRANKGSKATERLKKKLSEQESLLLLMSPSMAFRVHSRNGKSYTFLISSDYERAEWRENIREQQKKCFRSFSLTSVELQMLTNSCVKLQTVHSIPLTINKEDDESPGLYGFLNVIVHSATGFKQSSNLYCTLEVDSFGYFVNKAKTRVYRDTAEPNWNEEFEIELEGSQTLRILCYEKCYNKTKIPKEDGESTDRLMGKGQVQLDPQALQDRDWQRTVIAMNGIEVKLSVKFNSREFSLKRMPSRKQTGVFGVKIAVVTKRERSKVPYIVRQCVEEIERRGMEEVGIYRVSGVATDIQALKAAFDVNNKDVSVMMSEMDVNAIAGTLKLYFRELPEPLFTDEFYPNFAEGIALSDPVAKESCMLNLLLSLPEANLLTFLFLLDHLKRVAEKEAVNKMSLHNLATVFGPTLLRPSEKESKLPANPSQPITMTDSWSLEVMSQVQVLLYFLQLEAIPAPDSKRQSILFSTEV

One test has as its target Breakpoint cluster region protein (Homo sapiens) (UniProt P11274). The test is described as follows: dose-response of breakpoint cluster region GAP-domain inhibitors, specificity screen for MgcRacGAP inhibitor effort, cell-free enzymatic, Rac1 GTPase, Biomol Green phosphate measurement (AID 652149). The settings on record: BCR GAP/Rac1 GTPase, Biomol green phosphate absorbance.
With `O=c1c2ccccc2sn1-c1ccc(Cl)cc1Cl`, the IC50 was found to be 4.22 µM. Consider `Nc1n[nH]c(=S)n1/N=C1/C(=O)Nc2ccccc21`, for which the IC50 turned out to be 14.6 µM. The compound `O=C1C=CC(=O)c2c(O)c(N3CCN(CCO)CC3)c(Cl)c(O)c21` had an IC50 of 10.2 µM. Turning to `COc1ccc(/C=N/Nc2cc(C)nc3ccc(OC)cc23)c(OC)c1`, the IC50 worked out at 18.4 µM. Same read-out and setting: in the case of `CCN1CCN(Cc2ccc(NC(=O)c3ccc(C)c(/C=C/c4cnc(Nc5cc(N6CCNCC6)nc(C)n5)cn4)c3)cc2C(F)(F)F)CC1` it was 72.7 µM. With `COc1ccc(NC2CCCN(C(=O)C3(C)CCCCC3)C2)cc1` (stereo unspecified), the half-maximal inhibitory concentration (IC50) was 7.34 µM. Still for that read-out and setting: in the case of `Cc1ccc(-n2sc3cc(F)ccc3c2=O)c(C)c1` it was 6.71 µM; in that of `O=C1C(=Cc2ccco2)CCC1=Cc1ccco1`, 12.7 µM. Same read-out and setting: in the case of `O=C1C(Cl)=C(NC(=O)c2ccccc2)C(=O)C(Cl)=C1NC(=O)c1ccccc1` it was 22.7 µM; in that of `O=C(Nc1ccccc1Cl)/C(Cl)=C(\Cl)S(=O)c1ccccc1` (stereo unspecified), 12.6 µM. Compound `O=c1c2ccccc2sn1-c1ccc(F)cc1` came in with an IC50 of 4.46 µM. `O=C(O)c1cc(N2C(=O)C=CC2=O)cc(N2C(=O)C=CC2=O)c1`: the IC50 worked out at 24.4 µM. As for `CN(C)c1ccc(/C=C/c2cc[n+](C)c3ccccc23)cc1`, the IC50 came out at 23.3 µM. In turn, `O=c1c2cc(F)ccc2sn1-c1ccccc1` returned an IC50 of 7.49 µM. Still for that read-out and setting: then `COc1ccc(-n2sc3ccc(F)cc3c2=O)cc1`, with 9.82 µM; and `CN(C)c1nc(=NCc2cccs2)ss1`, with 18.5 µM. `O=C(O)c1cccc(-n2sc3ccccc3c2=O)c1` yielded a half-inhibitory concentration (IC50) of 9.61 µM. The compound `O=C1C=CC(=O)N1c1ccccc1N1C(=O)C=CC1=O` came in with an IC50 of 22.1 µM. On the same count and under the same terms, then `CCN(CC)c1ccc(C(=C2C=CC(=[N+](CC)CC)C=C2)c2ccc(N(CC)CC)cc2)cc1`, with 35.1 µM; and `CN(C)c1ccc(C=c2c3cc(O)ccc3n3c2cc(-c2ccccc2)[n+]3C)cc1`, with 10.8 µM. The same measure, in the same setting: then `O=C1NC(=S)N(c2ccccc2)C(=O)/C1=C/c1ccco1`, with 10.2 µM.

On to `Cn1ccc(=Nc2ccc(NC(=O)c3ccc(N=c4ccn(C)c5ccc([N+](=O)[O-])cc45)cc3)cc2)cc1`, for which the IC50 came out at 14.2 µM. On the same count and under the same terms, in the case of `COc1ccc(Nc2ccc3ccccc3c2)cc1` it was 5.93 µM; in that of `O=C1C(SCCO)=C(SCCO)C(=O)c2ccccc21`, 25.2 µM; in that of `Cc1cc(C)c2c(=N)c3ccccc3n(CCCCCCCCn3c4ccccc4c(=N)c4c(C)cc(C)nc43)c2n1`, 18 µM. Still for that read-out and setting: then `O=C(O)C1CSC(c2ccco2)N1` (stereo unspecified), with 10.7 µM; and `COC(=O)c1cccc(-n2sc3ccccc3c2=O)c1`, with 14.8 µM. On the same count and under the same terms, then `O=c1c2ccc(F)cc2sn1-c1ccccc1`, with 9.12 µM; and `O=c1c2sc3ccccc3c2[nH]c(=S)n1CCN1CCOCC1`, with 5.15 µM. `C[n+]1c(-c2ccc(C=NNC(=O)c3ccc(C(=O)NN=Cc4ccc(-c5cn6ccccc6[n+]5C)cc4)cc3)cc2)cn2ccccc21` registered an IC50 of 14.4 µM. `Cc1cc(N)c2cc(NC(=O)/C=C/c3ccccc3Cl)ccc2n1`: the IC50 worked out at 29.1 µM. On the same count and under the same terms, in the case of `Cc1c(Cl)sn(-c2ccc(Cl)cc2)c1=O` it was 12.9 µM. The same measure, in the same setting: in the case of `CSc1nc(N)c(N=Nc2ccc([As](=O)(O)O)cc2)c(=O)[nH]1` it was 5.86 µM; in that of `O=c1c2ccccc2sn1-c1ccccc1F`, 32.8 µM; in that of `O=c1c2ccccc2sn1-c1ccc(Cl)cc1`, 4.44 µM. Compound `Cc1ccc(C)c(-n2sc3ccc(F)cc3c2=O)c1` registered an IC50 of 7.31 µM. Compound `CC1=NNC(=O)C1Br` (stereo unspecified) displayed an IC50 of 13.6 µM. For the compound `CC1OC(CC(=O)O)CC2=C1C(=O)c1c(O)cccc1C2=O` (stereo unspecified), the IC50 turned out to be 13.2 µM. Consider `COc1ccc(-n2sc3ccccc3c2=O)cc1`, for which the IC50 was 13.3 µM. In turn, `O=c1c2ccccc2sn1-c1cccc(Cl)c1` gave an IC50 of 38.1 µM. As for `CC(=O)Nc1ccc2sn(-c3ccccc3)c(=O)c2c1`, the IC50 worked out at 27.4 µM. Same read-out and setting: then `O=c1c2cc(F)ccc2sn1-c1ccccc1Cl`, with 8.92 µM; and `O=C1C=CC(=O)c2c(O)c(N3CCN(CCOCCO)CC3)c(Br)c(O)c21`, with 31.4 µM; and `Nc1ccc(OCc2ccco2)cc1`, with 20.6 µM.

The test is the same for the next values; noted with them: BCR GAP/Rac1 GTPase, Biomol green phosphate absorbance; at 100 µM (top of the series).
In the case of `CN(C)c1ncc(C2=C(Cl)C(=O)C(N3CCCC3)=C(Cl)C2=O)s1`, the inhibition result was “inactive”. `O=C(O)c1cc(N2N=C(C(F)(F)F)/C(=C/C=C/c3ccco3)C2=O)ccc1Cl`: the inhibition entry was “inactive”.
